Columns and labels:
[1] = molecular target: Vascular endothelial growth factor receptor 2 (Homo sapiens, UniProt P35968); assay: Assay of Small Molecular Compounds for Inhibiting the Activity of VEGFR-2 Kinase: The assay is based on the LANCE TR-FRET technology of Perkin Elmer Inc., and the assay method is as follows:1. Dilution of compounds: a total of 11 concentrations were obtained using a 3-fold gradient dilution from the highest concentration of 2500 nM (the maximum final concentration of the drug used in this assay was 2500 nM, and the minimum final concentration was 0.042 nM).2. 2.5 μL of the gradient-diluted compounds were taken with a transfer pipette to a 384-well plate.3. Addition of enzyme: 5 μL of 2× VEGFR-2 kinase solution (concentration was 0.5 nM) was taken with a transfer pipette to the corresponding reaction well of the 384-well plate, mixed well and pre-reacted at room temperature for 30 minutes.4. 2.5 μL 4× Ultra ULight™-JAK-1 (Tyr1023) Peptide (concentration was 200 nM)/ATP (concentration was 40 μM) mixture was taken with a transfer pipette to the corresponding reaction well of the 384-well plate.5. Negative control: 2.5 μL/well 4× substrate/ATP mixture and 7.5 μL 1× Kinase Assay Buffer were added to the wells of the 384-well plate.6. Positive control: 2.5 μL/well 4× substrate/ATP mixture, 2.5 μL/well 1× Kinase Assay Buffer containing 16% DMSO, and 5 μL/well 2× VEGFR-2 kinase solution were added to the 384-well plate. The final concentration of DMSO in the reaction system was 4%.7. The mixture was mixed well and then centrifuged and reacted at room temperature in dark for 60 min.8. Termination of the enzymatic reaction: 5 μL of 4× stop solution was taken with a transfer pipette to the wells of the 384-well plate, mixed and then centrifuged, and reacted at room temperature for 5 min.9. Development of the reaction: 5 μL of 4× detection solution was taken with a transfer pipette to the wells of the 384-well plate for color development, and the mixture was mixed and then centrifuged and reacted at room temperature for 60 min.10. The 384-well plate was placed into the Envision plate reader and the signal was detected using the appropriate program.11. Analysis and processing of the raw data:The drug concentrations and the corresponding inhibition rates were input into GraphPad Prism5 for calculation, and the inhibition rate of the compounds were calculated as follows: inhibition rate (%)=(reading of positive well−reading of experimental well)/(reading of positive control well−reading of negative control well)×100%. Processing with GraphPad Prism5 software yielded the corresponding IC50 values (the concentration of the compound at which 50% of the highest inhibition of the enzyme is achieved).
[2] = molecular target: Hepatocyte growth factor receptor (Homo sapiens, UniProt P08581); assay: Assay of Small Molecular Compounds for Inhibiting the Activity of c-MET Kinase: The assay is based on the LANCE TR-FRET technology of Perkin Elmer Inc., and the assay method is as follows:1. Dilution of compounds: a total of 11 concentrations were obtained using a 3-fold gradient dilution from the highest concentration of 2500 nM (the maximum final concentration of the drug used in this assay was 2500 nM, and the minimum final concentration was 0.042 nM).2. 2.5 μL of the gradient-diluted compounds were taken with a transfer pipette to a 384-well plate.3. Addition of enzyme: 5 μL of 2× c-MET kinase solution (concentration was 2 nM) was taken with a transfer pipette to the corresponding reaction well of the 384-well plate, mixed well and pre-reacted at room temperature for 5 minutes.4. 2.5 μL 4× Ultra ULight™-JAK-1 (Tyr1023) Peptide (concentration was 400 nM)/ATP (concentration was 40 μM) mixture was taken with a transfer pipette to the corresponding reaction well of the 384-well plate.5. Negative control: 2.5 μL/well 4× substrate/ATP mixture and 7.5 μL 1× Kinase Assay Buffer were added to the wells of the 384-well plate.6. Positive control: 2.5 μL/well 4× substrate/ATP mixture, 2.5 μL/well 1× Kinase Assay Buffer containing 16% DMSO, and 5 µL/well 2× c-MET kinase solution were added to the 384-well plate. The final concentration of DMSO in the reaction system was 4%.7. The mixture was mixed well and then centrifuged and reacted at room temperature in dark for 60 min.8. Termination of the enzymatic reaction: 5 μL of 4× stop solution was taken with a transfer pipette to the wells of the 384-well plate, mixed and then centrifuged, and reacted at room temperature for 5 min.9. Development of the reaction: 5 μL of 4× detection solution was taken with a transfer pipette to the wells of the 384-well plate for color development, and the mixture was mixed and then centrifuged and reacted at room temperature for 60 min.10. The 384-well plate was placed into the Envision plate reader and the signal was detected using the appropriate program.11. Analysis and processing of the raw data:12. The drug concentrations and the corresponding inhibition rates were input into GraphPad Prism5 for calculation, and the inhibition rate of the compounds were calculated as follows: inhibition rate (%)=(reading of positive well−reading of experimental well)/(reading of positive control well−reading of negative control well)×100%. Processing with GraphPad Prism5 software yielded the corresponding IC50 values (the concentration of the compound at which 50% of the highest inhibition of the enzyme is achieved).
Sequence of Hepatocyte growth factor receptor (P08581 whole entry): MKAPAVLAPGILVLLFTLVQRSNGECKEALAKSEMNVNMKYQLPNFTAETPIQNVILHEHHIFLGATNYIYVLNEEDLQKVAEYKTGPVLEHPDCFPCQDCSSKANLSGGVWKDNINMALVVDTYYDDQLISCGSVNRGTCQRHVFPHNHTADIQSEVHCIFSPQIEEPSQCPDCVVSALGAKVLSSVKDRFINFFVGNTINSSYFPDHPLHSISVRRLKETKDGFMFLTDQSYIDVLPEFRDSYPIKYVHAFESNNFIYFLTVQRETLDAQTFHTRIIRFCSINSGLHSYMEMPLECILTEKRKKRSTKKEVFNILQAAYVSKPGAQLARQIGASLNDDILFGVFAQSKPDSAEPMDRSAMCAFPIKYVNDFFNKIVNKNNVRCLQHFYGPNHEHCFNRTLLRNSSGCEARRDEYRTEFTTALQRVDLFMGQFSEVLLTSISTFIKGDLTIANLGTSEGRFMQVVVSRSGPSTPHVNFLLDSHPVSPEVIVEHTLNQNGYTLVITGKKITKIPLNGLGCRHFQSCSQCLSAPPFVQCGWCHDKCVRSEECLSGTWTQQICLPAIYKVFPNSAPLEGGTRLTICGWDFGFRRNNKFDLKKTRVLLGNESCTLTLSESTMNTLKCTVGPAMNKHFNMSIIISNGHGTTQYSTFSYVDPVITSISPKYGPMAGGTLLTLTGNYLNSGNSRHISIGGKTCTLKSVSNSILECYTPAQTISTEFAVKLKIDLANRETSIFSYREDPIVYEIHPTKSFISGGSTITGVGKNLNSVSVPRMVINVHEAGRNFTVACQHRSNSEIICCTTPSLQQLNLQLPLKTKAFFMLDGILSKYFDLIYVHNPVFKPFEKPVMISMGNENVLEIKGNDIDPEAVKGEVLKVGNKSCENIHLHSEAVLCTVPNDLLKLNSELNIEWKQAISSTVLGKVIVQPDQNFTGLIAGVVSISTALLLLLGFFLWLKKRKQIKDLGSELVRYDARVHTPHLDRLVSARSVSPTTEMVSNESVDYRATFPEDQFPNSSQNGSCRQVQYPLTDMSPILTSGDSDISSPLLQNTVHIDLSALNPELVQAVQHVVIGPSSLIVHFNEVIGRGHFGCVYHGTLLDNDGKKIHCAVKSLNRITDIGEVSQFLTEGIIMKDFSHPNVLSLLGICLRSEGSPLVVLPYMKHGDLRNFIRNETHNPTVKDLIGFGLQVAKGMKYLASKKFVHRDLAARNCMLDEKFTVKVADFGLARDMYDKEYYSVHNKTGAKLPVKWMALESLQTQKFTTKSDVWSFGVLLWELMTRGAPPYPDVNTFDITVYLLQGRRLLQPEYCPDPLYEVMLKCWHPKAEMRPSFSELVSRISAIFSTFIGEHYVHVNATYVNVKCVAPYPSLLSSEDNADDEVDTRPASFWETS

Sequence of Vascular endothelial growth factor receptor 2 (P35968 whole entry): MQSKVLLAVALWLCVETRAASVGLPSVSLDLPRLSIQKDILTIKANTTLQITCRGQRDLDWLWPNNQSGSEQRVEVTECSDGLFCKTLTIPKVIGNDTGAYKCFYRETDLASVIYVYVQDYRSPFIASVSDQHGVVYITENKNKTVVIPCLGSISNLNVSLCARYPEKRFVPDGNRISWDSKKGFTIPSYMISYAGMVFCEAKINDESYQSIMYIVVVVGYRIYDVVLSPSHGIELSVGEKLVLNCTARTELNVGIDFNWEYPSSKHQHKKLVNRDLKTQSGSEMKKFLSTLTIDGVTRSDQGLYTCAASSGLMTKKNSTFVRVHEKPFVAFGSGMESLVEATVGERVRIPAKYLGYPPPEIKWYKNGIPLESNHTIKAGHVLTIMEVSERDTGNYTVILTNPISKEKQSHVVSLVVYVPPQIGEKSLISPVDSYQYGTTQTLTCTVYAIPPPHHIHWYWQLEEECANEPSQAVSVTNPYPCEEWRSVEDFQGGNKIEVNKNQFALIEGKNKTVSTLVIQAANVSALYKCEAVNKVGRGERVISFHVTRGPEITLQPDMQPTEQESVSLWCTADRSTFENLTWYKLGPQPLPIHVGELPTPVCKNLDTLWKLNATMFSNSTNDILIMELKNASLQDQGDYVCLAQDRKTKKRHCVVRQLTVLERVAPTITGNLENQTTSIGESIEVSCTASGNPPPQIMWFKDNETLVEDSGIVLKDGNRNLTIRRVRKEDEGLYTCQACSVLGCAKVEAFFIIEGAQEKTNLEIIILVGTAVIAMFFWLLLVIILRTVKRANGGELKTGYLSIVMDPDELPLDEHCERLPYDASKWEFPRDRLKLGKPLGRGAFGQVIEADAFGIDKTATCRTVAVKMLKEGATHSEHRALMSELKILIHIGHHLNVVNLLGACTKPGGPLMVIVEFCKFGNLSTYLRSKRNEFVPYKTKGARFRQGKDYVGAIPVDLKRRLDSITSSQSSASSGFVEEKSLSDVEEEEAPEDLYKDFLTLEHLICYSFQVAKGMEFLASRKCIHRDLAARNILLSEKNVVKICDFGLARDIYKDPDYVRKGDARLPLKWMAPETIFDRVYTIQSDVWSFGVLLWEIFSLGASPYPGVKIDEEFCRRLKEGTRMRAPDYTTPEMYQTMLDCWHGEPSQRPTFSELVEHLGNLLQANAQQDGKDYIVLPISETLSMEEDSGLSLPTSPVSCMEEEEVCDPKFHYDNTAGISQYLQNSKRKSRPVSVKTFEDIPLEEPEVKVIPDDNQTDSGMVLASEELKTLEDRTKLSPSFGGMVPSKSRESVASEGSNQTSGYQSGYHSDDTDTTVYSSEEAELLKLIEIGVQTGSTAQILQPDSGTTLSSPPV

O=C(Nc1ccc(F)cc1)C1(C(=O)Nc2ccc(Oc3ccnc4cc(OCCCN5CCOCC5)c5c(c34)OCCO5)c(F)c2)CC1
IC50 [1]: < 0.05 µM | IC50 [2]: < 0.05 µM

COc1cc2nccc(Oc3ccc(NC(=O)C4(C(=O)Nc5ccc(F)cc5)CC4)c(F)c3)c2c2c1OCCO2
IC50 [1]: < 0.05 µM | IC50 [2]: < 0.05 µM

O=C(Nc1ccc(F)cc1)C1(C(=O)Nc2ccc(Oc3ccnc4cc(OCCCN5CCOCC5)c5c(c34)OCCO5)cc2)CC1
IC50 [1]: < 0.05 µM | IC50 [2]: < 0.05 µM

O=C(Nc1ccc(F)cc1)C1(C(=O)Nc2ccc(Oc3ccnc4cc(OCCCN5CCS(=O)(=O)CC5)c5c(c34)OCCO5)c(F)c2)CC1
IC50 [1]: < 0.05 µM | IC50 [2]: < 0.05 µM

O=C(Nc1ccc(F)cc1)C1(C(=O)Nc2ccc(Oc3ccnc4cc(OCCCN5CCOCC5)c5c(c34)OCCO5)c(Cl)c2)CC1
IC50 [2]: < 0.05 µM

CN(CCCOc1cc2nccc(Oc3ccc(NC(=O)C4(C(=O)Nc5ccc(F)cc5)CC4)cc3F)c2c2c1OCCO2)C1CCC1
IC50 [1]: < 0.05 µM | IC50 [2]: < 0.05 µM

CC1(O)CCN(CCCOc2cc3nccc(Oc4ccc(NC(=O)C5(C(=O)Nc6ccc(F)cc6)CC5)cc4F)c3c3c2OCCO3)CC1
IC50 [1]: < 0.05 µM | IC50 [2]: < 0.05 µM

CN(C)CCCCCCOc1cc2nccc(Oc3ccc(NC(=O)C4(C(=O)Nc5ccc(F)cc5)CC4)cc3F)c2c2c1OCCO2
IC50 [1]: < 0.05 µM | IC50 [2]: < 0.05 µM

O=C(Nc1ccc(F)cc1)C1(C(=O)Nc2ccc(Oc3ccnc4cc(OCCCO)c5c(c34)OCCO5)c(F)c2)CC1
IC50 [1]: < 0.05 µM | IC50 [2]: < 0.05 µM

COc1cc2nccc(Oc3ccc(NC(=O)C4(C(=O)Nc5ccc(F)cc5)CC4)cc3F)c2c2c1OCCO2
IC50 [1]: < 0.05 µM | IC50 [2]: < 0.05 µM

N#CCOc1cc2nccc(Oc3ccc(NC(=O)C4(C(=O)Nc5ccc(F)cc5)CC4)cc3F)c2c2c1OCCO2
IC50 [2]: < 0.05 µM

O=C(Nc1ccc(F)cc1)C1(C(=O)Nc2ccc(Oc3ccnc4cc(OCCCN5CCCCC5)c5c(c34)OCCO5)c(F)c2)CC1
IC50 [1]: < 0.05 µM | IC50 [2]: < 0.05 µM

COc1cc2nccc(Oc3cc(Cl)c(NC(=O)C4(C(=O)Nc5ccc(F)cc5)CC4)cc3F)c2c2c1OCCO2
IC50 [1]: > 5 µM | IC50 [2]: < 0.05 µM

N#CCCCOc1cc2nccc(Oc3ccc(NC(=O)C4(C(=O)Nc5ccc(F)cc5)CC4)cc3F)c2c2c1OCCO2
IC50 [1]: < 0.05 µM | IC50 [2]: < 0.05 µM

O=C(Nc1ccc(F)cc1)C1(C(=O)Nc2ccc(Oc3ccnc4cc(OCCO)c5c(c34)OCCO5)c(F)c2)CC1
IC50 [1]: < 0.05 µM | IC50 [2]: < 0.05 µM

NC1(COc2cc3nccc(Oc4ccc(NC(=O)C5(C(=O)Nc6ccc(F)cc6)CC5)cc4F)c3c3c2OCCO3)CC1
IC50 [1]: < 0.05 µM | IC50 [2]: < 0.05 µM

O=C(Nc1ccc(F)cc1)C1(C(=O)Nc2ccc(Oc3ccnc4cc(OC5CCOC5)c5c(c34)OCCO5)c(F)c2)CC1 (stereo unspecified)
IC50 [1]: < 0.05 µM | IC50 [2]: < 0.05 µM

COCCCOc1cc2nccc(Oc3ccc(NC(=O)C4(C(=O)Nc5ccc(F)cc5)CC4)cc3F)c2c2c1OCCO2
IC50 [1]: < 0.05 µM | IC50 [2]: < 0.05 µM

COc1cc2nccc(Oc3ccc(NC(=O)C4(C(=O)Nc5ccc(F)cc5)CC4)cc3)c2c2c1OCCO2
IC50 [1]: < 0.05 µM | IC50 [2]: < 0.05 µM

CC1(C)CCN(CCCOc2cc3nccc(Oc4ccc(NC(=O)C5(C(=O)Nc6ccc(F)cc6)CC5)cc4F)c3c3c2OCCO3)CC1
IC50 [1]: < 0.05 µM | IC50 [2]: < 0.05 µM

CN1CCN(CCCOc2cc3nccc(Oc4ccc(NC(=O)C5(C(=O)Nc6ccc(F)cc6)CC5)cc4F)c3c3c2OCCO3)CC1
IC50 [1]: < 0.05 µM | IC50 [2]: < 0.05 µM

CN(C)CCCOc1cc2nccc(Oc3ccc(NC(=O)C4(C(=O)Nc5ccc(F)cc5)CC4)cc3F)c2c2c1OCCO2
IC50 [1]: < 0.05 µM | IC50 [2]: < 0.05 µM

O=C(Nc1ccc(F)cc1)C1(C(=O)Nc2ccc(Oc3ccnc4cc(OC5CCOCC5)c5c(c34)OCCO5)c(F)c2)CC1
IC50 [2]: < 0.05 µM

CC1(N)CCN(CCCOc2cc3nccc(Oc4ccc(NC(=O)C5(C(=O)Nc6ccc(F)cc6)CC5)cc4F)c3c3c2OCCO3)CC1
IC50 [1]: < 0.05 µM | IC50 [2]: < 0.05 µM

CC(C)(O)COc1cc2nccc(Oc3ccc(NC(=O)C4(C(=O)Nc5ccc(F)cc5)CC4)cc3F)c2c2c1OCCO2
IC50 [1]: < 0.05 µM | IC50 [2]: < 0.05 µM

O=C(Nc1ccc(F)cc1)C1(C(=O)Nc2ccc(Oc3ccnc4cc(OCCCN5CCOCC5)c5c(c34)OCCO5)cc2Cl)CC1
IC50 [2]: < 0.05 µM

COCCOc1cc2nccc(Oc3ccc(NC(=O)C4(C(=O)Nc5ccc(F)cc5)CC4)cc3F)c2c2c1OCCO2
IC50 [1]: < 0.05 µM | IC50 [2]: < 0.05 µM

CCOc1cc2nccc(Oc3ccc(NC(=O)C4(C(=O)Nc5ccc(F)cc5)CC4)cc3F)c2c2c1OCCO2
IC50 [1]: < 0.05 µM | IC50 [2]: < 0.05 µM

O=C(Nc1ccc(F)cc1)C1(C(=O)Nc2ccc(Oc3ccnc4cc(OC5COC5)c5c(c34)OCCO5)c(F)c2)CC1
IC50 [1]: < 0.05 µM | IC50 [2]: < 0.05 µM

O=C(Nc1ccc(F)cc1)C1(C(=O)Nc2ccc(Oc3ccnc4cc(OCCCN5CCCC5)c5c(c34)OCCO5)c(F)c2)CC1
IC50 [1]: < 0.05 µM | IC50 [2]: < 0.05 µM

COCCN(C)CCCOc1cc2nccc(Oc3ccc(NC(=O)C4(C(=O)Nc5ccc(F)cc5)CC4)cc3F)c2c2c1OCCO2
IC50 [1]: < 0.05 µM | IC50 [2]: < 0.05 µM

O=C(Nc1ccc(F)cc1)C1(C(=O)Nc2ccc(Oc3ccnc4cc(OCCCN5CCOCC5)c5c(c34)OCCO5)cc2F)CC1
IC50 [1]: < 0.05 µM | IC50 [2]: < 0.05 µM

CC(C)Oc1cc2nccc(Oc3ccc(NC(=O)C4(C(=O)Nc5ccc(F)cc5)CC4)cc3F)c2c2c1OCCO2
IC50 [2]: < 0.05 µM

Reference: ChEMBL document CHEMBL5729245, “Dioxinoquinoline compounds, preparation method and uses thereof” (2022)
